Results on 4 compounds are retold here after patent US20260116874A1, “HETEROAROMATIC INDOLESULFONAMIDES” (SEED Therapeutics, Inc., priority 2023, published 2026).

The nature of series [1]: Liver microsomes stability, mouse. The format is in vitro ADME. The following applies: 1 μM, Table 3, read-out: Metabolic Stability Half-life, mouse. The procedure:
(§1) A 100 μM test compound solution and PC solution (verapamil) was prepared by adding 2 μL of 10 mM stock solution in DMSO to 198 μL of 50% acetonitrile/50% water.
(§2) Two separate experiments were performed as follows:
(§3) a) With Cofactors (NADPH): 25 μL of 10 mM NADPH was added to the incubations. The final concentrations of microsomes and NADPH were 0.5 mg/mL and 1 mM, respectively.
(§4) b) Without Cofactors (NADPH): 25 μL of 100 mM Phosphate buffer was added to the incubations. The final concentration of microsomes was 0.5 mg/mL. The mixture was pre-warmed at 37° C. for 10 minutes.
(§5) The reaction was started with the addition of 2.5 μL of 100 µM control compound or test compound solutions. Verapamil was used as positive control in this study. The final concentration of test compound or control compound was 1 μM. The incubation solution was incubated in a water bath at 37° C.
(§6) Aliquots of 30 μL were taken from the reaction solution at 0.5, 15, 30, 45 and 60 minutes. The reaction was stopped by the addition of 5 volumes of cold acetonitrile with IS (100 nM alprazolam, 200 nM caffeine and 100 nM tolbutamide).
(§7) Samples were then centrifuged at 3,220 g for 40 minutes. An aliquot of 100 μL of the supernatant was mixed with 100 μL of ultra-pure H2O and then used for LC-MS/MS analysis.
(§8) Single dose PK parameters were also determined for Compound 143, a deuterated derivative of Compound 1, according to the methods described herein. […] Metabolic stability was assessed by measuring the half-life of the test compounds in human and mouse liver microsomes.

Series [2] is described as follows: Liver microsomes stability, human. The following applies: 1 μM, Table 3, read-out: Metabolic Stability Half-life, human. The format is in vitro ADME. As to the method: as §1, §2, §3, §4, §5, §6, §7, §8
A general note: Microsomes from liver hold many membrane-bound enzymes, among them those of drug oxidation.

A short description of series [3]: General solubility protocol (PBS, pH 7.4). The format is physicochemical. The following applies: PBS buffer, aqueous buffer, kinetic from dmso stock, pH 7.4, 25° C. As to the method: Into a 96-well rack, 15 μL of stock solution (10 mM) of each sample was placed. Into each vial of a cap-less Solubility Sample plate 485 μL of buffer was added. The assay was performed in duplicate. To each vial one stir stick was added and each vial was sealed using a molded PTFE/Silicone plug. The Solubility Sample plate was then transferred to an Eppendorf Thermomixer Comfort plate shaker and shake at 25° C. at 1100 RPM for 2 hours. […] Using a vacuum manifold, all the samples were filtered. An aliquot of 5 μL was taken from the filtrate and 5 μL blank DMSO followed by addition of 490 μL of a mixture of H2O and acetonitrile containing an internal standard (1:1). The dilution factor may be changed according to the solubility value and the LC/MS signal response.

The test system of another series is HCT116 colorectal cells. Briefly: Cell viability assay (CellTiter-Glo) in HCT116 cells. The following applies: Homo sapiens, HCT-116, 72h, CellTiter-Glo, read-out: HCT116 Assay (IC50). The format is cell-based. As to the method: HCT116 colorectal cells were used in these experiments. HCT116 cells were obtained from ATCC. The CellTiter-Glo® Luminescent Cell Viability Assay Reagent was obtained from Promega.
Into a 96-well plate, 3000 HCT116 cells were seeded with 100 μL of media (McCoy's 5A Medium supplemented with 10% FBS, 100 units penicillin, and 100 μg streptomycin per mL) 24h before the experiment. For compound treatment, the liquid handling system-Pico machine was used to prepare all the compounds. Each master plate contained serial dilution of 2 compounds, including the control compound E7820. 10 mM compound stock was added to each well of the assay plate to give final concentrations of […], 0.003, 0.002 and 0 μM. Each concentration was tested in triplicate. After 72h, cell viability was determined using CellTiter-Glo Luminescent Cell Viability Assay Reagent following the manufacturer's recommended protocol. Briefly, equilibrate the assay plate and its contents at room temperature for approximately 30 minutes. 100 μL of CellTiter-Glo reagent was added to each well of the assay plate and the contents were mixed for 2 minutes at 500 rpm on an orbital shaker to induce cell lysis (Fisherbrand). The plate was incubated at room temperature for 10 minutes to stabilize luminescent signal. Then the plate was immediately placed in a plate reader (PerkinElmer Multimode Plate Reader Envision2105) and the luminescence signal (0.5 second per well integration time) was determined. IC50 values were calculated using Graphpad Prism 9 software.
Cell viability assays were performed to compare the potency of Compound 1 to Compound 143.

A further series concerns the target T1, MDR1 (Homo sapiens, UniProt P08183).
T1 construct: expressed in transfected cells; host or cells: MDCK-MDR1 cells (MDCK host)
Briefly: MDCK-MDR1 permeability / efflux assay. The format is in vitro ADME, canine. The following applies: dog, MDCK-MDR1, pH 7.4, MDCK-MDR1, 1 μM, 2 hours; Table 3; read-out: MDCK-MDR1 Efflux ratio. As to the method:
To prepare transport buffer (HBSS with 10 mM HEPES, pH 7.4), 2.383 g of HEPES and 0.35 g sodium hydrogen carbonate was accurately weighed and added into 900 mL of pure water, then sonicated to dissolve the content. Into the solution was transferred 100 mL of 10×HBSS, and the solution was placed on a stirrer. The pH of the solution was slowly adjusted with sodium hydroxide to 7.4, followed with filtering.
MDCK-MDR1 plate(s) were removed from the incubator. The monolayer was washed the monolayer twice with pre-warmed HBSS (10 mM HEPES, pH 7.4). Then the plate(s) were incubated at 37° C. for 30 minutes.
Propranolol was used as the high permeability marker. Digoxin was used as the substrate of […] (MDR1). Stock solutions of test compound(s) and digoxin in DMSO at 0.2 mM were prepared and diluted with HBSS (10 mM HEPES, pH 7.4) to get 1 μM working solutions. Stock solutions of propranolol in DMSO at 1 mM was prepared and diluted with HBSS (10 mM HEPES, pH 7.4) to get 5 μM working solutions.
To determine the rate of drug transport in the apical to basolateral direction, 125 μL of the working solution was added to the Transwell insert (apical compartment), and a 50 μL sample was immediately transferred from the apical compartment to 200 μL quenching solvents (acetonitrile with 100 nM alprazolam, 200 nM caffeine, 200 nM labetalol and 100 nM tolbutamide) in a new 96-well plate as the initial donor sample (A-B). The plate was shaken at 1000 rpm for 10 minutes. The wells in the receiver plate (basolateral compartment) were filled with 235 μL of transport buffer. All incubations were performed in duplicate.
To determine the rate of drug transport in the basolateral to apical direction, 285 μL of the 1 μM working solution was added to the receiver plate wells (basolateral compartment), and a 50 μL sample was immediately transferred from the basolateral compartment to 200 μL quenching solvents (acetonitrile with 100 nM alprazolam, 200 nM caffeine, 200 nM labetalol and 100 nM tolbutamide) in a new 96-well plate as the initial donor sample (B-A). Shake the plate at 1000 rpm 10 minutes. The Transwell insert (apical compartment) was filled with 75 μL of transport buffer. The apical to basolateral direction and the basolateral to apical direction were done at the same time.
The Transwell insert plate was inserted into the basolateral plate, transferred into the incubator and incubated at 37° C. for 2 hours.
At the end of the incubation, 50 μL samples from donor sides (apical compartment for Ap→Bl flux, and basolateral compartment for Bl→Ap flux) and receiver sides (basolateral compartment for Ap→Bl flux, and apical compartment for Bl→Ap flux) were transferred to wells of a new 96-well plate, followed by the addition of 4 volume of quenching solvents (acetonitrile with 100 nM alprazolam, 200 nM caffeine, 200 nM labetalol and 100 nM tolbutamide). Samples were Vortexed for 10 minutes and then centrifuged at 3,220 g for 40 minutes. An aliquot of 100 μL of the supernatant was mixed with an appropriate volume of ultra-pure water before LC-MS/MS analysis.
To determine the Lucifer yellow leakage after 2-hour transport period, Lucifer yellow working solutions were prepared by diluting the stock solution with HBSS (10 mM HEPES, pH 7.4) to reach the final concentration of 100 μM. To the apical compartment, 100 μL of the Lucifer yellow solution were added. The plate(s) were incubated at 37° C. for 30 minutes and 80 μL was directly removed from the apical and basolateral wells and transferred to new 96 wells plates. Lucifer yellow fluorescence (to monitor monolayer integrity) was measured in a fluorescence plate reader at 485 nm excitation and 530 nm emission.

pIC50: −log10 of the molar value. In brackets after ≈: the same amount, converted by molar mass. A value given as a limit tells only on which side of the number the result lay.

T1 sequence (P08183 whole entry): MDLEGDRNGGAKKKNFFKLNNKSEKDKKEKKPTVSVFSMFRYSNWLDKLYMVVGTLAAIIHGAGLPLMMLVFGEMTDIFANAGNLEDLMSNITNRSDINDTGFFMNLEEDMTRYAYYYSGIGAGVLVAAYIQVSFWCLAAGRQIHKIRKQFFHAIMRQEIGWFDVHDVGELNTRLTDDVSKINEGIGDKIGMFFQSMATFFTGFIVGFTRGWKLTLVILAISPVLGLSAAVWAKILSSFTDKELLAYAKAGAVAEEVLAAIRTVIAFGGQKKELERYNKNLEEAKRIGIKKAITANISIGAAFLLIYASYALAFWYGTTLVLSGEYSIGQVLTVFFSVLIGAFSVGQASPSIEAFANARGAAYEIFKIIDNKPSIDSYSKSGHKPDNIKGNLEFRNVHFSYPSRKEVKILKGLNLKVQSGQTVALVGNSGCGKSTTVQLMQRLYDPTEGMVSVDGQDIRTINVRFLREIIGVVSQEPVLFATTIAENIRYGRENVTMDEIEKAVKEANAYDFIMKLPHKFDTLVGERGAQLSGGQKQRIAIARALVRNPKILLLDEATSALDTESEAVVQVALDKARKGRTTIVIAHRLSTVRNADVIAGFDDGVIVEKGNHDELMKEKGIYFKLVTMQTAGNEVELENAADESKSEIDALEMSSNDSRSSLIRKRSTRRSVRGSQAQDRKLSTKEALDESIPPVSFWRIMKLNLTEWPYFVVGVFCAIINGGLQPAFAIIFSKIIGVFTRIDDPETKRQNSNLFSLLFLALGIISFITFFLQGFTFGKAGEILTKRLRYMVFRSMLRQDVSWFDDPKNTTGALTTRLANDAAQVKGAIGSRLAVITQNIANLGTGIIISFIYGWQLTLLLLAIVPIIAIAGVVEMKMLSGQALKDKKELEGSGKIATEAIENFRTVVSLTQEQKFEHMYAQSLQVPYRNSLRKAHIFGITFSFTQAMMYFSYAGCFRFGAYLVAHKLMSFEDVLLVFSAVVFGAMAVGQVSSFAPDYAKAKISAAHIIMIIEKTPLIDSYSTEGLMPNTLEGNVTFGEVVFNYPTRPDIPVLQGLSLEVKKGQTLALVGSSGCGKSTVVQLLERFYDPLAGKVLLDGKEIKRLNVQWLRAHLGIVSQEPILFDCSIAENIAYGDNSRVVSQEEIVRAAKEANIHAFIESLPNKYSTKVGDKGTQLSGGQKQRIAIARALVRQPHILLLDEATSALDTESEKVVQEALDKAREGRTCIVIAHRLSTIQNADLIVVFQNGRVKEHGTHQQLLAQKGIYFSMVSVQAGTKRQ

The term half-life denotes the time in which the quantity being followed falls by half. As a reminder, the solubility is the dissolved amount per volume that the medium holds. Read a high solubility as a readily soluble substance. For orientation: pIC50 means the negative decadic logarithm of the IC50, by convention in mol/L. For `Cc1cc(S(=O)(=O)Nc2ccc(C)c3c(C#N)c[nH]c23)sn1` [Compound 57], the values for the half-life at 1 µM in series [1] and in series [2] were 1.02 h and 0.557 h, respectively. In addition, in series [3], the solubility at 2 h was 294 µM (≈ 97.6 µg/mL). In the series with HCT116 colorectal cells, the negative logarithm of the IC50 (pIC50) was over 6.30. For the same compound, the efflux ratio at 2 h, 1 µM at MDR1 amounted to 4.84.
Take `Cc1ncc(S(=O)(=O)Nc2ccc(C)c3c(Cl)c[nH]c23)s1` [Compound 20, N-(3-chloro-4-methyl-1H-indol-7-yl)-2-methyl-thiazole-5-sulfonamide]: the half-life at 1 µM in series [2] is 0.396 h. This compound registered a solubility at 2 h in series [3] of 1.91 µM (≈ 0.653 µg/mL). For the same compound, the negative-log IC50 (pIC50) in the series on HCT116 colorectal cells was over 6.30. At MDR1, the efflux ratio at 2 h, 1 µM came out at 1.11.
Take `Cc1ncc(S(=O)(=O)Nc2ccc(C)c3c(C#N)c[nH]c23)o1` [Compound 2, N-(3-cyano-4-methyl-1H-indol-7-yl)-2-methyl-oxazole-5-sulfonamide]: the figures for the half-life at 1 µM in series [1] and in series [2] were 2.68 h and over 3.85 h, respectively. In addition, the solubility at 2 h in series [3] came out at 292 µM (≈ 92.4 µg/mL). Also, in the series on HCT116 colorectal cells, the negative-log IC50 (pIC50) is over 6.30. Also, the efflux ratio at 2 h, 1 µM at MDR1 is 6.74.
Take `Cc1ccc(NS(=O)(=O)c2ccn3ccnc3c2)c2[nH]cc(C#N)c12` [Compound 39]: the half-life at 1 µM in series [1] was 0.566 h; in series [2], 1.16 h. Also, in series [3], the concentration in solution (solubility at 2 h) came to 1.24 µM (≈ 0.436 µg/mL). The efflux ratio at 2 h, 1 µM on MDR1 worked out at 50.1.
